Measured values taken from US20110082087A1, “COMPOUNDS FOR TREATING PAIN” (Edificio ICAT, priority 2008, published 2011).

Assays:
rats [1] = assay: Rota-rod test (motor ability); assay type: in vivo, rat; conditions: 3.23 mg/100 g of body mass
Protocol: To evaluate the motor ability of animals after being injected with the drug (3.23 mg/100 g of body mass), the Rota-rod test was used. Briefly, the animal is placed on a wheel and run in balanced position; if balance is lost, the animal falls.

rats (Wister, male) [2] = assay: Hepatotoxicity markers in plasma; assay type: in vivo, rat
Protocol: (§1) The toxicological studies were carried out with rats (Wister, male) injected i.p. once a day with 3.23 mg/100 g body mass during seven days.
Liver is the major organ of toxicity. Blood samples were collected and the following hepatotoxicity markers were assayed in the plasma: • Alanine transaminase (ALT), • Aspartate transaminase (AST) • Alkaline phosphatase (ALP) • Total bilirubin (TBILI) • Gamma glutamyl transpeptidase (GGT)
Increased levels of the liver enzymes ALT, AST, ALP and GGT in the plasma would indicate lesions in liver. Increased RBL would be a sign of faulty bilirubin production/hemolysis and/or bilirubin metabolism (in liver).

CYP3A4 = CYP3A4 (Homo sapiens, UniProt P08684); assay: CYP inhibition; assay type: in vitro ADME; conditions: probe substrates midazolan and testosterone
Description: CYP3A4 is one of the most important enzymes involved in the metabolism of xenobiotics in the body, promoting the oxidation of the largest range of substrates of all the CYPs and is present in the largest quantity of all the CYPs in the liver.

rats [3] = assay: Formalin test (paw jerks); assay type: in vivo, rat; conditions: acute and tonic-chronic phases; i.p. 10 min before 5% formalin s.c.
Description: The formalin test was introduced as a model of tonic pain in 1977 (Dubuisson D., Dennis S. G. 1977. The formalin test: a quantitative study of the analgesic effect of morphine, meperidine and brain stem stimulation in rats and cats. Pain; 4:74-161). In rats, formalin generates an initial phase of activity (phase 1, acute), a quiescent interphase, and a second phase of activity (phase 2, tonic/chronic), and this is seen with spontaneous behaviors, firing of afferent neurons, and activity in dorsal horn neurons. Both active phases involve ongoing peripheral afferent neural activity; inflammation contributes to phase 2 activity and the interphase results from active inhibition. Within the spinal cord, formalin increases c-fos expression in neurons and causes activation of microglia, and these may contribute more prominently to longer term changes.
We performed the formalin test due to its validity as a model to study central sensitization events at the spinal level after peripheral inflammatory states. The standard two types of nociception were analyzed; the short-lasting nociception caused by a direct effect on nociceptors followed by a long-lasting nociception due to inflammation. KTP-NH2 was administered i.p. 10 min previous to formalin injection. […] The paw jerks were videotaped and measured both in the acute and in the tonic-chronic phases. […]

Plasma stability = assay type: in vitro ADME, human; conditions: after 1 h incubation
Description: Drugs are exposed in plasma to enzymatic processes (proteinases, esterases), they can undergo intramolecular rearrangement or bind irreversibly (covalently) to proteins. Compounds which are not stable in plasma have inherent liability as drug candidates, as they are less capable to reach a sufficient concentration at their site of pharmacological activity.

rats (Wister, male) [4] = assay: Histological alterations in liver, kidney and spleen; assay type: in vivo, rat; conditions: hematoxylin/eosin; 3.23 mg/100 g i.p. seven days
Protocol: as §1
For investigation of histological alterations in liver, kidney and spleen hematoxylin/eosin-stained sections of fixed tissue were used.

rats (Wister, male) [5] = assay: Tail Flick test; assay type: in vivo, rat
Protocol: (§2) In vivo behavioural anti-nociception tests were carried out in rats (Wister, male). Unless otherwise stated, compounds were administered by intra-peritoneal (i.p.) injection. For most assays, the Tail Flick and the Hot Plate tests were used.
The tail-flick test (D'Amour F. E., Smith D. L. 1941. A method for determining the loss of pain sensation. J Pharmacol Exp Ther 1941; 72:74-79) is a standard investigative tool for pain and analgesia assessment in rodents. It is based on a spinal reflex response of the tail to radiant heat. Pain sensitivity in rats was measured as they responded to the application of radiant heat to a small area of their tails. The rat's tail was placed over a window located on a platform and subjected to irradiation by an intense light beam (10 W). When the rat feels discomfort, it flicks its tail which automatically stops the timer. The reaction time from activation of the light beam to the tail flick is automatically presented on a digital display. A cut-off time of 24 s was applied. Animal reaction time is a measurement of animal resistance to pain and is used to measure efficacy of analgesics.

[6] = Cytotoxicity (LDH release and ATP); assay type: cell-based; conditions: human hepatocytes; LDH and ATP determination; read-out: LC50 (the source's name)
Protocol: Cytotoxicity was assessed with a cell-based assay using human hepatocytes. Cell death was assayed by quantifying plasma membrane damage or rupture through measurement of the release of lactate dehydrogenase (LDH) (Legrand, C. et al. 1992. Lactate dehydrogenase (LDH) activity of the cultured eukaryotic cells as marker of the number of dead cells in the medium. J. Biotechnol. 25: 231-243), a stable cytoplasmic enzyme present in most cells. Determination of cell viability was performed by quantifying ATP (Cree I. A and Andreotti P. E. 1997. Measurement of cytotoxicity by ATP-based luminescence assay in primary cell cultures and cell lines. Toxicology in vitro, 11: 553-556), a marker for cell viability because it is present in all metabolically active cells and the concentration declines very rapidly when the cells undergo necrosis or apoptosis.

rats [7] = assay: Comparison with morphine, behavioural nociception tests and behaviour observation; assay type: in vivo, rat; conditions: i.p.
Protocol: as §2
The analgesic potential of KTP-NH2 was also verified by comparison with well-known, widely-used analgesic molecules: ibuprofen and morphine.
From FIG. 12 it is possible to observe that the efficacy of 3 mg/100 g of KTP-NH2 is similar to that observed with 0.5 mg/100 g dose of morphine.

Chain of CYP3A4 (P08684 whole entry): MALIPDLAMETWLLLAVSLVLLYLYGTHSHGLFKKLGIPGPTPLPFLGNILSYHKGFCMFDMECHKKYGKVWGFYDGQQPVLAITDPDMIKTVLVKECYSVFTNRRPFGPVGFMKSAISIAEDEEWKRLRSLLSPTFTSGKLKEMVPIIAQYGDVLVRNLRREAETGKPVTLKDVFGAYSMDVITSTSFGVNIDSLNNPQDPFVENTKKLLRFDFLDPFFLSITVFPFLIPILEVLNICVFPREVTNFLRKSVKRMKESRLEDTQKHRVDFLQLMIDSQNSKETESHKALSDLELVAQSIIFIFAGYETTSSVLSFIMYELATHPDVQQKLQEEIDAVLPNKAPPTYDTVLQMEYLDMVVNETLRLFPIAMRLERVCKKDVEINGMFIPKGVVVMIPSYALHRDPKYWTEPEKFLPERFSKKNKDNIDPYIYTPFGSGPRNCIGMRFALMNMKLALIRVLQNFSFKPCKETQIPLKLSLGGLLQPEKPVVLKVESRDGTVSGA

N=C(N)NCCC[C@H](NC(=O)[C@@H](N)Cc1ccc(O)cc1)C(N)=O [KTP-NH2, L-Tyr-L-Arg-NH2]
motor ability, loss of balance (rats [1]): No loss of balance/equilibrium
GGT in plasma (rats (Wister, male) [2]; i.p. once a day 3.23 mg/100 g for seven days): trace amounts, below the detection limit
hepatotoxicity markers AST, ALT, ALP, total bilirubin in plasma (rats (Wister, male) [2]; i.p. once a day 3.23 mg/100 g for seven days vs control): no toxic effects were detected
CYP3A4 inhibition (CYP3A4): not to inhibit
number of paw-jerks (rats [3]): reduced significantly
stability in human plasma (Plasma stability): 14-21%
histological alterations in kidney and spleen (rats (Wister, male) [4]): no histological modifications
histological alterations in liver (rats (Wister, male) [4]): no sign of hepatic necrosis
response after chronic administration (rats (Wister, male) [5]; Tail Flick, 3.23 mg/100 g once a day for seven days vs single injection): very similar profile to the control
analgesic effect compared with ibuprofen (rats (Wister, male) [5]; Tail Flick, i.p.): more durable effect
duration of anti-nociceptive response (rats (Wister, male) [5]; Tail Flick, i.p., rat): 45 min
smallest dose tested with statistical significance (rats (Wister, male) [5]; Tail Flick, i.p., rat): 2.45 mg for 100 g of body mass
analgesic efficacy after oral administration (rats (Wister, male) [5]; Tail Flick, oral, rat): slight delay of the onset of effect
effect on tail flick latency (rats (Wister, male) [5]; i.p., rat): clear anti-nociceptive response
analgesia after pretreatment with naloxone (rats (Wister, male) [5]; tail-flick, naloxone 0.5 mg/100 g 10 min before, KTP-NH2 3 mg/100 g): completely antagonized
CC50 [6]: > 125 µM
analgesic efficacy compared with morphine (rats [7]; 3 mg/100 g KTP-NH2 vs 0.5 mg/100 g morphine): similar
alterations in behavior (secondary effects) (rats [7]; rats): no such secondary effects were observed
